In publication PMC4619705 (PLoS ONE, 2015):
pEC50: −log10 of the molar value. “Also recorded” adds a separate entry of the source.

Tests used:
Format in all cases: cell-based
β3 homomeric receptors = molecular target: T1, β3 homomeric receptors (Homo sapiens, UniProt P28472); experiment: Two-electrode voltage clamp of β3 homomeric receptors expressed in Xenopus oocytes; settings: β3 homomeric receptors; 0.1–300 μM etomidate
T1 construct: expressed in transfected cells; host or cells: Xenopus laevis oocytes injected with β3 mRNA (5 ng/oocyte)
T1 sequence (P28472 26-473): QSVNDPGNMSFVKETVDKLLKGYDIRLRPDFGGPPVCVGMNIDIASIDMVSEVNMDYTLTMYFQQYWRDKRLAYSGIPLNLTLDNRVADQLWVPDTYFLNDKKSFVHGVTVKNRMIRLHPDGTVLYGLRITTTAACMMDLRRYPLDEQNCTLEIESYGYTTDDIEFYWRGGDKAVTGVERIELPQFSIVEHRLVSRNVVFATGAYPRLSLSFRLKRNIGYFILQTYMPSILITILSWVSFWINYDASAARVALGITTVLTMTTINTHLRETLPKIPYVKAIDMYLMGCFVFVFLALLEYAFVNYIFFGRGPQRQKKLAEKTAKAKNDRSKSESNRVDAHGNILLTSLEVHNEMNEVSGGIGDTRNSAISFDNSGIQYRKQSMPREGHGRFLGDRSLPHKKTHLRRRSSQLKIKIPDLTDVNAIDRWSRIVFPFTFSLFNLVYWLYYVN
Excerpt: (§1) Human complementary DNA (cDNA) of GABAAR α2 subunit (vector: pCMV6-XL5) was purchased from OriGene Technologies (Rockville, MD, USA), and the human β3 (vector: pGEMHE) and γ2L (vector: pCDM8) subunits were generous gifts from Dr. Bjarke Ebert (H. Lundbeck A/S, Valby, Denmark) and Dr. Paul Whiting (Merck, Sharp and Dohme Research Laboratories, Harlow, Essex, UK) respectively. […] Plasmid vectors with the cDNA incorporated were linearised using appropriate restriction endonucleases (α2: SmaI; β3: NheI; γ2L: NotI). Capped RNA transcripts were synthesised from linearised plasmids using the mMessage mMachine T7 transcript kit from Ambion (Austin, TX, USA). Purified messenger RNA (mRNA) was dissolved in nuclease-free water (Ambion, Austin, TX, USA), and its quality was assessed using 1% agarose gel electrophoresis. The concentration of each subunit mRNA was measured using Nanodrop ND-100 UV-Vis spectrophotometer (Thermo Fisher Scientific, North Ryde, NSW, Australia).
(§2) Various combinations of α2, β3 and γ2L subunit mRNAs were mixed to different ratios as stated in the text, and diluted accordingly to a concentration of 5 ng/μL (unless otherwise stated). […] Injected oocytes were stored in ND96 storage solution supplemented with 50 μg/mL gentamycin and tetracycline at 18°C. Two-electrode voltage clamp recordings were performed on oocytes 2–4 days post-injection at room temperature (20–25°C) using a GeneClamp 500B amplifier (ADInstruments, Sydney, NSW, Australia) or a Warner OC-725C Oocyte Clamp (Warner Instrument Corp, Hamden, CT, USA). All experiments were conducted at a holding potential of –60 mV, and data were acquired with a PowerLab 2/25, and LabChart (version 5.0.2) software (ADInstruments, Sydney, NSW, Australia). The recording microelectrodes (0.2–1.1 MΩ) were generated from capillary glass (Harvard Apparatus, Holliston, MA, USA) using a single-stage glass microelectrode puller (Narishige, Tokyo, Japan), and were filled with 3 M KCl solution. The perfusion system was built using a series of polycarbonate, high-density polyethylene two-way stopcocks (Qosina, Edgewood, NY, USA), connected through tubing to the recording chamber (100 μL), where the oocyte was continuously perfused with ND96 recording solution (96 mM NaCl, 2 mM KCl, 1 mM MgCl2, 1.8 mM CaCl2, 5 mM HEPES hemisodium; pH 7.4) at an approximate rate of 5 mL/min.
(§3) Perfusates containing these chemicals were made up fresh before each application. The concentration-response curves of agonists were obtained by exposing oocytes to increasing concentrations of agonists until the currents peaked. […] All experiments were performed using at least two different batches of oocytes.
Prism (version 5.04; GraphPad Software, La Jolla, CA, USA) was used for data analysis. […]

γ2L homomeric receptors = molecular target: T2, γ2L homomeric receptors (Homo sapiens, UniProt P18507); experiment: Two-electrode voltage clamp of γ2L homomeric receptors expressed in Xenopus oocytes; settings: 100 μM
T2 construct: expressed in transfected cells; host or cells: Xenopus laevis oocytes injected with γ2L mRNA alone (high amounts)
Excerpt: as §1, §2, §3

α2γ2L receptors = molecular target: T3, α2γ2L receptors (Homo sapiens, UniProt P18507+P47869); experiment: Two-electrode voltage clamp of binary α2γ2L receptors expressed in Xenopus oocytes
T3 construct: expressed in transfected cells; host or cells: Xenopus laevis oocytes injected with α2 and γ2L mRNAs
Excerpt: as §1, §2, §3

β3γ2L GABAARs = molecular target: T4, β3γ2L GABAARs (Homo sapiens, UniProt P18507+P28472); experiment: Two-electrode voltage clamp of β3γ2L GABAARs expressed at various β3:γ2L mRNA ratios in Xenopus oocytes; settings: for pEC50: EC50 (95% CI) of direct activation; for Effect of Zn2+ alone on baseline current: 100 μM
T4 construct: expressed in transfected cells; host or cells: Xenopus laevis oocytes injected with β3 and γ2L mRNAs at 1:1 to 1:100
Excerpt: as §1
as §2, with “All experiments were conducted at a holding potential of –60 mV, and data were acquired with a PowerLab 2/25, and LabChart (version 5.0.2) software (ADInstruments, Sydney, NSW, Australia).” left out
as §3
(§4) Prism (version 5.04; GraphPad Software, La Jolla, CA, USA) was used for data analysis.
(§5) In all cases, we constrained the bottom to 0, and when fitting data to the biphasic model, the Hill slopes were constrained to 1. Statistical comparisons of results for different injection ratios of β3γ2L receptors were performed using ANOVA with Tukey’s post-hoc test. When comparing results from different injection ratios of β3γ2L receptors with α2β3γ2L receptors, the ANOVA Dunnett’s test was used. Pairwise comparisons were performed using Student’s t test. Statistical significance was attained at p < 0.05.

α2β3 GABAARs = molecular target: T5, α2β3 GABAARs (Homo sapiens, UniProt P28472+P47869); experiment: Two-electrode voltage clamp of binary α2β3 GABAARs expressed in Xenopus oocytes; settings: α2β3 20:1; 100 μM
T5 construct: expressed in transfected cells; host or cells: Xenopus laevis oocytes injected with capped mRNA, α2:β3 20:1
T5 sequence (P47869 29-451): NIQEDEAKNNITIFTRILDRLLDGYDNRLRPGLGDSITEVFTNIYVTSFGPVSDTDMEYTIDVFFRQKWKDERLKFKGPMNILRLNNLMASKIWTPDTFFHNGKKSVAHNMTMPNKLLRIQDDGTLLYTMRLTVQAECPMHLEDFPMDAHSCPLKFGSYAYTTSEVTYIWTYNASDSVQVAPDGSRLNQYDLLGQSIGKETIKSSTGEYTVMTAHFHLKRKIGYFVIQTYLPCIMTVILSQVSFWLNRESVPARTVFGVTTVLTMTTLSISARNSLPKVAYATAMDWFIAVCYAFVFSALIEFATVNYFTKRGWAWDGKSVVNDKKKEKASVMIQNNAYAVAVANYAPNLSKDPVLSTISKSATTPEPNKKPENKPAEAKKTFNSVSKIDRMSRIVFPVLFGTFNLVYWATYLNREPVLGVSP
T5 sequence (P28472 26-473): T1 sequence (P28472 26-473)
Excerpt: as §1, §2, §3, §4, §5

T4 sequence (P18507 40-475, one chain of several): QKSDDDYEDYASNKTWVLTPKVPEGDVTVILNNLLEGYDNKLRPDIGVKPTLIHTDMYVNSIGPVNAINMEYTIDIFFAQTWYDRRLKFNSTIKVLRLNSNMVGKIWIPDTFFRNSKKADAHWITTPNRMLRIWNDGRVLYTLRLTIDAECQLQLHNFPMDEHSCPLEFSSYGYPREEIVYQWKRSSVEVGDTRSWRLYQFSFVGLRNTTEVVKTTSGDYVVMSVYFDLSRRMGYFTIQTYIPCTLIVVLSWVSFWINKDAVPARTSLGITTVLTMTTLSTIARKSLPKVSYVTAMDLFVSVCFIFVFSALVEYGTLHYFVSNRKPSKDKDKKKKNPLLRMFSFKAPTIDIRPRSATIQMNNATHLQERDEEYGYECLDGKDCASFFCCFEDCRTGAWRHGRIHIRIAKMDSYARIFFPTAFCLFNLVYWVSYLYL
T2 sequence (P18507 40-475): as the sequence (P18507 40-475, one chain of several) above
T3 sequence (P18507 40-475, one chain of several): as above

CCOC(=O)c1cncn1[C@H](C)c1ccccc1 [Etomidate]
E max, normalised against 60 mM GABA (β3 homomeric receptors): 15 ± 0.79 | Direct activation by etomidate (γ2L homomeric receptors; γ2L alone): not sensitive; also recorded: did not activate | Direct activation by etomidate (α2γ2L receptors; α2γ2L, data not shown): did not activate | E max ± SEM (300 μM etomidate-elicited current normalised against 3 mM GABA response) (β3γ2L GABAARs; β3γ2L 1:15, -30 mV): 9.9 ± 0.84 | n H ± SEM (Hill slope) of direct activation (β3γ2L GABAARs; β3γ2L 1:15, -30 mV): 1.3 ± 0.33 | E max ± SEM (30 μM etomidate-elicited current normalised against 3 mM GABA response) (β3γ2L GABAARs; β3γ2L 1:15, -60 mV): 20 ± 1.8 | n H ± SEM (Hill slope) of direct activation (β3γ2L GABAARs; β3γ2L 1:15, -60 mV): 2.0 ± 0.32 | E max ± SEM (300 μM etomidate-elicited current normalised against 3 mM GABA response) (β3γ2L GABAARs; β3γ2L 1:50, -60 mV): 5.5 ± 0.80 | n H ± SEM (Hill slope) of direct activation (β3γ2L GABAARs; β3γ2L 1:50, -60 mV): 1.3 ± 0.37 | E max ± SEM (300 μM etomidate-elicited current normalised against 3 mM GABA response) (β3γ2L GABAARs; β3γ2L 1:100, -30 mV): 2.8 ± 0.50 | n H ± SEM (Hill slope) of direct activation (β3γ2L GABAARs; β3γ2L 1:100, -30 mV): 1.2 ± 0.50 | E max ± SEM (300 μM etomidate-elicited current normalised against 3 mM GABA response) (β3γ2L GABAARs; β3γ2L 1:100, -60 mV): 3.2 ± 0.40 | n H ± SEM (Hill slope) of direct activation (β3γ2L GABAARs; β3γ2L 1:100, -60 mV): 1.5 ± 0.46

CC(C)c1cccc(C(C)C)c1O [Propofol]
pEC50 (β3γ2L GABAARs; β3γ2L 1:15, -60 mV): 4.07 | pEC50 (β3γ2L GABAARs; β3γ2L 1:100, -60 mV): 4.13 | E max ± SEM (300 μM propofol-elicited current normalised against 3 mM GABA response) (β3γ2L GABAARs; β3γ2L 1:15, -60 mV): 5.7 ± 0.55 | n H ± SEM (Hill slope) of direct activation (β3γ2L GABAARs; β3γ2L 1:15, -60 mV): 1.4 ± 0.50 | E max ± SEM (300 μM propofol-elicited current normalised against 3 mM GABA response) (β3γ2L GABAARs; β3γ2L 1:15, -60 mV, listed as propofol): approximately 6 | E max ± SEM (300 μM propofol-elicited current normalised against 3 mM GABA response) (β3γ2L GABAARs; β3γ2L 1:100, -60 mV): 0.64 ± 0.23 | n H ± SEM (Hill slope) of direct activation (β3γ2L GABAARs; β3γ2L 1:100, -60 mV): 2.0 ± 1.2

[Cl-].[Cl-].[Zn+2] [Zn^2+, zinc chloride]
Effect of Zn2+ alone on baseline current (α2β3 GABAARs): lack of activity | Effect of Zn2+ alone on constitutive activity (γ2L homomeric receptors; 28–35 ng/oocyte): inhibited | Effect of Zn2+ alone (α2γ2L receptors; α2γ2L 1:1, 100 μM): no function | Effect of Zn2+ alone on baseline current (β3γ2L GABAARs; β3γ2L 1:15): reduction in inward current; also recorded: sensitive to the inhibition | Effect of Zn2+ alone on baseline current (β3γ2L GABAARs; β3γ2L 1:50): did not have any effects | Effect of Zn2+ alone on baseline current (β3γ2L GABAARs; β3γ2L 1:100): did not have any effects
